In PMC6151589, “Identification of Optically Active Pyrimidine Derivatives as Selective 5-HT2C Modulators” (Molecules : A Journal of Synthetic Chemistry and Natural …, 2017):
Read-outs that look alike come from different tables or passages of the source.

Experiments:
[1] = target: T1, 5-HT7 (Homo sapiens, UniProt P34969); experiment: biochemical; parameters: species or system HEK293 or CHO; competitive radioligand binding on crude membranes, filtration and scintillation counting; details: for Ki: read-out: Ki (nM), 7
T1 construct: gene HTR7; human recombinant receptor, crude membranes of HEK293 or CHO cells
Procedure: (§1) Eleven dilutions (5 × assay concentration) of the test and reference compounds (Table S1) were prepared in standard binding buffer (50 mM tris(hydroxymethyl)-aminomethane-HCl (Tris-HCl), 10 mM MgCl2, 1 mM ethylenediaminetetraacetate (EDTA), pH 7.4) by serial dilution: 0.05 nM, 0.5 nM, 1.5 nM, 5 nM, 15 nM, 50 nM, 150 nM, 500 nM, 1.5 μM, 5 μM, and 50 μM. The radioligand (Table S3) was diluted to five times the assay concentration in standard binding buffer. Aliquots ([…]) of the radioligand were dispensed into the wells of a 96-well plate containing […] of standard binding buffer. Triplicate aliquots ([…]) of the test and reference compound dilutions were then added. Finally, crude membrane fractions ([…]) of cells (HEK293 or CHO) expressing human recombinant receptors were dispensed into each well. A total of […] of the reaction mixtures was incubated at room temperature and shielded from light for 1.5 h, and was then harvested by rapid filtration onto Whatman GF/B glass fiber filters presoaked with 0.3% polyethyleneimine, by using a 96-well Brandel harvester (Gaithersburg, MD, USA). Four rapid washes were performed with chilled standard binding buffer (500 mL) to decrease nonspecific binding. Filters were placed in 6 mL scintillation tubes and allowed to dry overnight. The next day, 4-mL of EcoScint scintillation cocktail (National Diagnostics) was added to each tube. The tubes were capped, labeled, and counted by [compound left out] scintillation counting. The filter mats were dried, and the scintillant was melted onto the filters, then the radioactivity retained on the filters was counted in a Microbeta scintillation counter. The IC50 values were obtained by using the Prism 4.0 program (GraphPad Software, La Jolla, CA, USA) and were converted into Ki values. Each compound was tested at least in triplicate. With each enantiomer (R)- or (S)-5d and 5e in hand, the optically active pyrimidine derivatives 4d–4e were synthesized following the same reaction sequences (Scheme 3). Finally, compounds 4d and 4e were assessed for their binding affinity to 5-HT2 receptor subtypes by radioligand binding assays. […] A further evaluation of these compounds for other 5-HT receptor subtypes was also performed and is provided in the supplementary data (Table S2). […] Considering the potencies and selectivities of 4, we can conclude that (R,R)-4e would be a viable candidate for a selective 5-HT2C modulator.

[2] = target: T2, 5-HT1E (Homo sapiens, UniProt P28566); experiment: biochemical; parameters: species or system HEK293 or CHO; competitive radioligand binding on crude membranes, filtration and scintillation counting; details: for Ki: read-out: Ki (nM), 1E
T2 construct: gene HTR1E; human recombinant receptor, crude membranes of HEK293 or CHO cells
Procedure: as §1

[3] = target: T3, 5-HT6 (Homo sapiens, UniProt P50406); experiment: biochemical; parameters: species or system HEK293 or CHO; competitive radioligand binding on crude membranes, filtration and scintillation counting; details: for Ki: read-out: Ki (nM), 6
T3 construct: gene HTR6; human recombinant receptor, crude membranes of HEK293 or CHO cells
Procedure: as §1

[4] = target: T4, 5-HT1B (Homo sapiens, UniProt P28222); experiment: biochemical; parameters: species or system HEK293 or CHO; competitive radioligand binding on crude membranes, filtration and scintillation counting
T4 construct: gene HTR1B; human recombinant receptor, crude membranes of HEK293 or CHO cells
Procedure: as §1

[5] = target: T5, 5-HT2A (Homo sapiens, UniProt P28223); experiment: radioligand displacement, membranes; assay type: binding
T5 construct: gene HTR2A; human recombinant receptor; crude membrane fractions of transfected HEK293 or CHO cells
Excerpt: radioligand displacement, membranes on 5-HT2A

[6] = target: T6, 5-HT2B (Homo sapiens, UniProt P41595); experiment: radioligand displacement, membranes; assay type: binding
T6 construct: gene HTR2B; human recombinant receptor; crude membrane fractions of transfected HEK293 or CHO cells
Excerpt: radioligand displacement, membranes on 5-HT2B

[7] = target: T5, 5-HT2A; experiment: biochemical; parameters: species or system HEK293 or CHO; competitive radioligand binding on crude membranes, filtration and scintillation counting
Procedure: as §1, with “liquid” for “[compound left out]”

T5 sequence (P28223 whole entry): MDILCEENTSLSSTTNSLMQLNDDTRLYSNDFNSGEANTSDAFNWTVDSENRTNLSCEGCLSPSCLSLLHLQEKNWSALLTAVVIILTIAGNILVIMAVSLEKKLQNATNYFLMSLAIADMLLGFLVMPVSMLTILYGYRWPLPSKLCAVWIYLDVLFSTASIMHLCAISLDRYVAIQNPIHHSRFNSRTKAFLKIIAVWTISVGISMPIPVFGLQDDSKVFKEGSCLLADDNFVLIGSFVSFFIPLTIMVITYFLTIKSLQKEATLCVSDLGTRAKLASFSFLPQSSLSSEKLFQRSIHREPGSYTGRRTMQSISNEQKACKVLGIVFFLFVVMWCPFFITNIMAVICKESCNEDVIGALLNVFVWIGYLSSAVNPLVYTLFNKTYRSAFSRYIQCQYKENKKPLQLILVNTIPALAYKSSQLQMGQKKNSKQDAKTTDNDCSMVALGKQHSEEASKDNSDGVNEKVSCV
T6 sequence (P41595 whole entry): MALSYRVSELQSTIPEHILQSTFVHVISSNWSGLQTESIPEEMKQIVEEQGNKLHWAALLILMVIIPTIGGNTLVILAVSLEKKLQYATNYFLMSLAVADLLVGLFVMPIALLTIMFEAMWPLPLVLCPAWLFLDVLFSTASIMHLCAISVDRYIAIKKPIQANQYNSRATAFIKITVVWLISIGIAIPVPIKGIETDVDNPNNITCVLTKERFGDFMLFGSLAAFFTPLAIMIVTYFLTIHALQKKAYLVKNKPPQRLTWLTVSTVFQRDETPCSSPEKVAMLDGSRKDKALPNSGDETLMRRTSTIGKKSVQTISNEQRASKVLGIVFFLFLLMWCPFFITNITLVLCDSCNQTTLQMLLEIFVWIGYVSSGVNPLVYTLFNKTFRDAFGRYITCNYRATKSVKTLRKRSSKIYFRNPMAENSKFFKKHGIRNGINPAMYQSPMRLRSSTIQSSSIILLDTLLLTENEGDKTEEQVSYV
T1 sequence (P34969 whole entry): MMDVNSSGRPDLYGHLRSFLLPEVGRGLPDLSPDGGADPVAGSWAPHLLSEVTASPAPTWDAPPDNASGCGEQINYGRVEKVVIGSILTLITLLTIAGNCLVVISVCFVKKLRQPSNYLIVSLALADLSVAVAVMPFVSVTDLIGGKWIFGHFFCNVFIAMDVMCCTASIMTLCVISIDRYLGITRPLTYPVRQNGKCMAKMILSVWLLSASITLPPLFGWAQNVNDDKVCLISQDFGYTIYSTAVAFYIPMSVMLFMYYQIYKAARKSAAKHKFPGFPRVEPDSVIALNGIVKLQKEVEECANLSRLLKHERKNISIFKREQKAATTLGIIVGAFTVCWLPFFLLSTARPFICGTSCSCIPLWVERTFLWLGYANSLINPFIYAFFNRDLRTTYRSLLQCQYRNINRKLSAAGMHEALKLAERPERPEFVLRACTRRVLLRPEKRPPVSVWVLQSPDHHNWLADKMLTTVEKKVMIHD
T4 sequence (P28222 whole entry): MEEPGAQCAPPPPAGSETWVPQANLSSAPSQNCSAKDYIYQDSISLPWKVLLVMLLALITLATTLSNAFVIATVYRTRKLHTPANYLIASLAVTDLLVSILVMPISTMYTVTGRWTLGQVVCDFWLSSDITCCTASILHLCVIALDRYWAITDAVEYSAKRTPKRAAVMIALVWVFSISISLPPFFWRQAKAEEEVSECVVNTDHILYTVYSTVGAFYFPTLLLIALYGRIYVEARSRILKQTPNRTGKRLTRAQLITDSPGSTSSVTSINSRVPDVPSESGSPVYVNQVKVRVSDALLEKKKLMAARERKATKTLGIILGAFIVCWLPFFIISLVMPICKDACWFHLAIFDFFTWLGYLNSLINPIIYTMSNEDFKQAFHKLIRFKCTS
T3 sequence (P50406 whole entry): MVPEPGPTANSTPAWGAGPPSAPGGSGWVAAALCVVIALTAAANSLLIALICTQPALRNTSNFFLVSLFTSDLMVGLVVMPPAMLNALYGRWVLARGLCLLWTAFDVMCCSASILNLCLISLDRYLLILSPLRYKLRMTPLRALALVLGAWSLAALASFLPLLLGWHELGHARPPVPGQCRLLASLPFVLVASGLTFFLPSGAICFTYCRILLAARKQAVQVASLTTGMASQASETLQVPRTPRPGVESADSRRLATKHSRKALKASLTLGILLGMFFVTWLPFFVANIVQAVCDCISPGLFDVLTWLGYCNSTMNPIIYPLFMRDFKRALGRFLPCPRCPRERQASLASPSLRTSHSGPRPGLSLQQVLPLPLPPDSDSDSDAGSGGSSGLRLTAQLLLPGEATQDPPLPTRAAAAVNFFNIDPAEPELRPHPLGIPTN
T2 sequence (P28566 whole entry): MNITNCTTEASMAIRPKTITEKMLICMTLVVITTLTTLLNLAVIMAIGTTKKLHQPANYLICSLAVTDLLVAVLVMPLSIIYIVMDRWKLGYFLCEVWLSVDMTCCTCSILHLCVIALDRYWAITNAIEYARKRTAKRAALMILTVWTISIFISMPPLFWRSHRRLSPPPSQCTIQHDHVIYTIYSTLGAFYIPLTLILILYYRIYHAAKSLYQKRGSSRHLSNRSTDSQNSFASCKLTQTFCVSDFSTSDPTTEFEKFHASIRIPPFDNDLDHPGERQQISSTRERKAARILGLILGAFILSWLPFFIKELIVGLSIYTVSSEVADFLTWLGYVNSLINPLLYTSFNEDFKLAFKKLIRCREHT

Row | SMILES | inhibition at 10 µM [1] [%] | Ki [1] [nM] | inhibition at 10 µM [2] [%] | Ki [2] [nM] | inhibition at 10 µM [3] [%] | Ki [3] [nM] | inhibition at 10 µM [4] [%] | Ki [5] [nM] | Ki [6] [nM] | inhibition at 10 µM [7] [%] | 5-HT2A / %Binding ([5]; pH 7.4, 10 mM MgCl2, room temperature, single concentration, 10 μM) [%] | Ki ([4]; read-out: Ki (nM), 1B) [nM] | Ki ([6]; pH […] MgCl2, room temperature, reference compound, may stem from the authors' earlier study (ref […])) [nM]
1 | C[C@@H]1CNCCN1c1ncc(F)c(O[C@H](C)c2cccc(F)c2)n1 [(R,R)-4d, 5-Fluoro-4-((R)-1-(3-fluorophenyl)ethoxy)-2-((R)-2-methylpiperazin-1-yl)pyrimidine] | 84.4 | 444 | 67.5 | 1160 | 95.7 | 57 | 27.7 | 222 | 2.6 | 93.3 | – | – | –
2 | C[C@@H]1CNCCN1c1ncc(F)c(O[C@H](C)c2ccc(F)cc2)n1 [(R,R)-4e, 5-Fluoro-4-((R)-1-(4-fluorophenyl)ethoxy)-2-((R)-2-methylpiperazin-1-yl)pyrimidine] | 87.6 | 236 | 42.7 | – | 97.4 | 17 | 6.4 | – | 19 | – | 0.9 | – | –
3 | C[C@H](Oc1nc(N2CCNC[C@H]2C)ncc1F)c1cccc(F)c1 [(S,R)-4d, 5-Fluoro-4-((S)-1-(3-fluorophenyl)ethoxy)-2-((R)-2-methylpiperazin-1-yl)pyrimidine] | 56.9 | 766 | 29.5 | – | 91.6 | 70 | 3 | 475 | 67 | 82.4 | – | – | –
4 | C[C@H](Oc1nc(N2CCNC[C@H]2C)ncc1F)c1ccc(F)cc1 [(S,R)-4e, 5-Fluoro-4-((S)-1-(4-fluorophenyl)ethoxy)-2-((R)-2-methylpiperazin-1-yl)pyrimidine] | 64.8 | 946 | – | – | 86.1 | 116 | 17.9 | 1020 | 128 | 64.8 | – | – | –
5 | C[C@H](Cc1cccc(F)c1)Oc1nc(N2CCNC[C@H]2C)ncc1F [compound 3, pyrimidine analogue 3] | 94.7 | 84 | 65.6 | 1160 | 93.8 | 43 | 55.1 | 128 | – | 95.6 | – | 1780 | 7.9
